Biological target: human NEP (Homo sapiens (Human), UniProt P08473)
Assay: In vitro enzyme inhibition assay at human NEP
Settings: pKi, recombinant human NEP, fluorogenic peptide substrate, 37° C.

Chain of human NEP (P08473 52-750): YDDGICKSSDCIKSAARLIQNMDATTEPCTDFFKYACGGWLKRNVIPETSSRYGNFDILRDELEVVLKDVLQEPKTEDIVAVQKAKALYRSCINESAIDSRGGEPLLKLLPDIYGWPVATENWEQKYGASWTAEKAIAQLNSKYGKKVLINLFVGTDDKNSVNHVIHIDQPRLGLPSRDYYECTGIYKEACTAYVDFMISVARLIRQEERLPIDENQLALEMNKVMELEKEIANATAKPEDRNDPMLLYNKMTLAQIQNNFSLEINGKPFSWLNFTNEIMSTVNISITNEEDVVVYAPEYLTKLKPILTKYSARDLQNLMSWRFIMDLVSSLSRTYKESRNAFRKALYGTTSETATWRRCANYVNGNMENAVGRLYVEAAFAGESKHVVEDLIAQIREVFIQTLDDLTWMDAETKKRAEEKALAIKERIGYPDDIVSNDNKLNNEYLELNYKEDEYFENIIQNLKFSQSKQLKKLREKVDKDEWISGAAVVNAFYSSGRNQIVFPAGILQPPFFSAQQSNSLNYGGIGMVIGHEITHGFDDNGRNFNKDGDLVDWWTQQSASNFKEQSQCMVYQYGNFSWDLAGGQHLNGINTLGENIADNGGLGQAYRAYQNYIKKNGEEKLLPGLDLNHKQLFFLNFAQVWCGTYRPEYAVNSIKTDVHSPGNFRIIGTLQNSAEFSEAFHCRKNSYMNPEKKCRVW

Row | Ki [nM] | Compound
1 | ≤ 1 | O=C(N[C@H](Cc1ccc(-c2cc(Cl)ccc2F)cc1)C[C@@H](CNCCO)C(=O)O)c1cnn[nH]1 (single isomer, unassigned) [Example 48a]
2 | 1.26 to 3.16 | O=C(N[C@H](Cc1ccc(-c2cc(Cl)ccc2F)cc1)C[C@@H](CNCCO)C(=O)O)c1cnn[nH]1 (single isomer, unassigned) [Example 48b]
3 | ≤ 1 | COCCNC[C@H](C[C@@H](Cc1ccc(-c2cc(Cl)ccc2F)cc1)NC(=O)c1cnn[nH]1)C(=O)O (single isomer, unassigned) [Example 49a]
4 | 3.16 to 10 | Cc1cc(C(=O)NC(Cc2ccc(-c3cc(Cl)ccc3F)cc2)C[C@@H](CC#N)C(=O)O)sn1 (single isomer, unassigned) [Example 52-2]
5 | 3.16 to 10 | O=C(N[C@H](Cc1ccc(-c2cc(Cl)ccc2F)cc1)CC(C(=O)O)c1cccnc1)c1cnn[nH]1 (single isomer, unassigned) [Example 77a]
6 | ≤ 1 | O=C(N[C@H](Cc1ccc(-c2cc(Cl)ccc2F)cc1)CC(C(=O)O)C1CCNCC1)c1cnn[nH]1 (stereo in doubt) [Example 59, (S)-5-(5′-Chloro-2′-fluorobiphenyl-4-yl)-2-piperidin-4-yl-4-[(3H-[1,2,3]triazole-4-carbonyl)amino]pentanoic Acid]
7 | 3.16 to 10 | CC(=O)N1CCC(C(C[C@@H](Cc2ccc(-c3ccccc3)cc2)NC(=O)c2cnn[nH]2)C(=O)O)CC1 (stereo in doubt) [Example 60, (S)-2-(1-Acetylpiperidin-4-yl)-5-biphenyl-4-yl-4-[(3H-[1,2,3]triazole-4-carbonyl)amino]pentanoic Acid]
8 | 12.6 to 31.6 | O=C(N[C@H](Cc1ccc(-c2cc(Cl)ccc2F)cc1)CC(C(=O)O)c1ccccn1)c1cnn[nH]1 (stereo in doubt) [Example 76, (S)-5-(5′-Chloro-2′-fluorobiphenyl-4-yl)-2-pyridin-2-yl-4-[(3H-[1,2,3]triazole-4-carbonyl)amino]pentanoic Acid]
9 | 1.26 to 3.16 | O=C(N[C@H](Cc1ccc(-c2cc(Cl)ccc2F)cc1)CC(C(=O)O)c1cccs1)c1cnn[nH]1 (stereo in doubt) [Example 78, (S)-5-(5′-Chloro-2′-fluorobiphenyl-4-yl)-2-thiophen-2-yl-4-[(3H-[1,2,3]triazole-4-carbonyl)amino]pentanoic Acid]
10 | 1.26 to 3.16 | O=C(N[C@H](Cc1ccc(-c2cc(Cl)ccc2F)cc1)CC(C(=O)O)c1ccsc1)c1cnn[nH]1 (stereo in doubt) [Example 79, (S)-5-(5′-Chloro-2′-fluorobiphenyl-4-yl)-2-thiophen-3-yl-4-[(3H-[1,2,3]triazole-4-carbonyl)amino]pentanoic Acid]
11 | 1.26 to 3.16 | COC[C@H](C[C@@H](Cc1ccc(-c2cc(Cl)ccc2F)cc1)NC(=O)c1c[nH]c(=O)o1)C(=O)O [Example 2-10, (2S,4S)-5-(5′-Chloro-2′-fluorobiphenyl-4-yl)-2-methoxymethyl-4-[(2-oxo-2,3-dihydro-oxazole-5-carbonyl)amino]pentanoic acid]
12 | ≤ 1 | CCOC[C@H](C[C@@H](Cc1ccc(-c2cccc(Cl)c2)cc1)NC(=O)c1cc(O)no1)C(=O)O [Example 8, (2S,4S)-5-(3′-Chlorobiphenyl-4-yl)-2-ethoxymethyl-4-[(3-hydroxyisoxazole-5-carbonyl)amino]pentanoic Acid]

Row | Compound | Ki [nM]
13 | O=C(N[C@H](Cc1ccc(-c2ccccc2)cc1)CC(C(=O)O)C1CCOCC1)c1cnn[nH]1 (stereo in doubt) [Example 58, (S)-5-Biphenyl-4-yl-2-(tetrahydropyran-4-yl)-4-[(3H-[1,2,3]triazole-4-carbonyl)amino]pentanoic Acid] | 3.16 to 10
14 | COC[C@H](C[C@@H](Cc1ccc(-c2cc(Cl)ccc2F)cc1)NC(=O)c1[nH]nc(C2CC2)c1F)C(=O)O [Example 2-3, (2S,4S)-5-(5′-Chloro-2′-fluorobiphenyl-4-yl)-4-[(5-cyclopropyl-4-fluoro-2H-pyrazole-3-carbonyl)amino]-2-methoxymethylpentanoic acid] | 1.26 to 3.16
15 | CCOC[C@H](C[C@@H](Cc1ccc(-c2cc(Cl)ccc2F)cc1)NC(=O)c1cocn1)C(=O)O [Example 7-7, (2S,4S)-5-(5′-Chloro-2′-fluorobiphenyl-4-yl)-2-ethoxymethyl-4-[(oxazole-4-carbonyl)amino]pentanoic acid] | 1.26 to 3.16
16 | CCOC[C@H](C[C@@H](Cc1ccc(-c2cc(Cl)ccc2F)cc1)NC(=O)c1coc(C2CC2)n1)C(=O)O [Example 7-8, (2S,4S)-5-(5′-Chloro-2′-fluorobiphenyl-4-yl)-4-[(2-cyclopropyloxazole-4-carbonyl)amino]-2-ethoxymethylpentanoic acid] | 1.26 to 3.16

Same assay, conditions: recombinant human NEP, fluorogenic peptide substrate, 37° C.

Row | pKi | Compound
17 | ≧9.0 | COC[C@H](C[C@@H](Cc1ccc(-c2cc(Cl)ccc2F)cc1)NC(=O)c1cc(C(C)=O)n[nH]1)C(=O)O [Example 2-4, (2S,4S)-4-[(5-Acetyl-2H-pyrazole-3-carbonyl)-amino]-5-(5′-chloro-2′-fluorobiphenyl-4-yl)-2-methoxymethylpentanoic acid]
18 | ≧9.0 | COC[C@H](C[C@@H](Cc1ccc(-c2cc(Cl)ccc2F)cc1)NC(=O)c1cc(O)no1)C(=O)O [Example 2-5, (2S,4S)-5-(5′-Chloro-2′-fluorobiphenyl-4-yl)-4-[(3-hydroxyisoxazole-5-carbonyl)-amino]-2-methoxymethylpentanoic acid]
19 | ≧9.0 | COC[C@H](C[C@@H](Cc1ccc(-c2cc(Cl)ccc2F)cc1)NC(=O)c1ncco1)C(=O)O [Example 2-7, (2S,4S)-5-(5′-Chloro-2′-fluorobiphenyl-4-yl)-2-methoxymethyl-4-[(oxazole-2-carbonyl)amino]pentanoic acid]
20 | ≧9.0 | COC[C@H](C[C@@H](Cc1ccc(-c2cc(Cl)ccc2F)cc1)NC(=O)c1noc(=O)[nH]1)C(=O)O [Example 2-11, (2S,4S)-5-(5′-Chloro-2′-fluorobiphenyl-4-yl)-2-methoxymethyl-4-[(5-oxo-4,5-dihydro-[1,2,4]oxadiazole-3-carbonyl)amino]pentanoic acid]
21 | ≧9.0 | COC[C@H](C[C@@H](Cc1ccc(-c2cc(Cl)ccc2F)cc1)NC(=O)c1ccc(Cl)cn1)C(=O)O [Example 2-12, (2S,4S)-5-(5′-Chloro-2′-fluorobiphenyl-4-yl)-4-[(5-chloro-pyridine-2-carbonyl)-amino]-2-methoxymethylpentanoic acid]
22 | ≧9.0 | COC[C@H](C[C@@H](Cc1ccc(-c2cc(Cl)ccc2F)cc1)NC(=O)c1ccc(C(F)(F)F)cn1)C(=O)O [Example 2-14, (2S,4S)-5-(5′-Chloro-2′-fluorobiphenyl-4-yl)-2-methoxymethyl-4-[(5-trifluoromethylpyridine-2-carbonyl)amino]pentanoic acid]
23 | ≧9.0 | COC[C@H](C[C@@H](Cc1ccc(-c2cccc(Cl)c2)cc1)NC(=O)c1n[nH]c(C(F)(F)F)n1)C(=O)O [Example 4-1, (2S,4S)-5-(3′-Chlorobiphenyl-4-yl)-2-methoxymethyl-4-[(5-trifluoromethyl-1H-[1,2,4]triazole-3-carbonyl)amino]pentanoic acid]
24 | ≧9.0 | COC[C@H](C[C@@H](Cc1ccc(-c2cccc(Cl)c2)cc1)NC(=O)c1cc(O)no1)C(=O)O [Example 4-2, (2S,4S)-5-(3′-Chlorobiphenyl-4-yl)-4-[(3-hydroxy-isoxazole-5-carbonyl)amino]-2-methoxymethylpentanoic acid]
25 | ≧9.0 | COC[C@H](C[C@@H](Cc1ccc(-c2cccc(Cl)c2)cc1)NC(=O)c1noc(=O)[nH]1)C(=O)O [Example 4-3, (2S,4S)-5-(3′-Chlorobiphenyl-4-yl)-2-methoxymethyl-4-[(5-oxo-4,5-dihydro-[1,2,4]oxadiazole-3-carbonyl)amino]pentanoic acid]
26 | ≧9.0 | CCOC[C@H](C[C@@H](Cc1ccc(-c2cc(Cl)ccc2F)cc1)NC(=O)c1n[nH]c(C(F)(F)F)n1)C(=O)O [Example 6, (2S,4S)-5-(5′-Chloro-2′-fluorobiphenyl-4-yl)-2-ethoxymethyl-4-[(5-trifluoromethyl-1H-[1,2,4]triazole-3-carbonyl)amino]pentanoic Acid]
27 | ≧9.0 | CCOC[C@H](C[C@@H](Cc1ccc(-c2cc(Cl)ccc2F)cc1)NC(=O)c1cc(C(C)=O)n[nH]1)C(=O)O [Example 7-3, (2S,4S)-4-[(5-Acetyl-2H-pyrazole-3-carbonyl)-amino]-5-(5′-chloro-2′-fluorobiphenyl-4-yl)-2-ethoxymethylpentanoic acid]
28 | ≧9.0 | CCOC[C@H](C[C@@H](Cc1ccc(-c2cc(Cl)ccc2F)cc1)NC(=O)c1cc(CC)no1)C(=O)O [Example 7-5, (2S,4S)-5-(5′-Chloro-2′-fluorobiphenyl-4-yl)-2-ethoxymethyl-4-[(3-ethylisoxazole-5-carbonyl)amino]pentanoic acid]
29 | ≧9.0 | CCOC[C@H](C[C@@H](Cc1ccc(-c2cc(Cl)ccc2F)cc1)NC(=O)c1ncco1)C(=O)O [Example 7-6, (2S,4S)-5-(5′-Chloro-2′-fluorobiphenyl-4-yl)-2-ethoxymethyl-4-[(oxazole-2-carbonyl)amino]pentanoic acid]
30 | ≧9.0 | CCOC[C@H](C[C@@H](Cc1ccc(-c2cc(Cl)ccc2F)cc1)NC(=O)c1c[nH]c(=O)o1)C(=O)O [Example 7-9, (2S,4S)-5-(5′-Chloro-2′-fluorobiphenyl-4-yl)-2-ethoxymethyl-4-[(2-oxo-2,3-dihydro-oxazole-5-carbonyl)amino]pentanoic acid]
31 | ≧9.0 | CCOC[C@H](C[C@@H](Cc1ccc(-c2cc(Cl)ccc2F)cc1)NC(=O)c1noc(=O)[nH]1)C(=O)O [Example 7-10, (2S,4S)-5-(5′-Chloro-2′-fluorobiphenyl-4-yl)-2-ethoxymethyl-4-[(5-oxo-4,5-dihydro-[1,2,4]oxadiazole-3-carbonyl)amino]pentanoic acid]
32 | ≧9.0 | CCOC[C@H](C[C@@H](Cc1ccc(-c2cc(Cl)ccc2F)cc1)NC(=O)c1ncccn1)C(=O)O [Example 7-11, (2S,4S)-5-(5′-Chloro-2′-fluorobiphenyl-4-yl)-2-ethoxymethyl-4-[(pyrimidine-2-carbonyl)amino]pentanoic acid]
33 | ≧9.0 | CCOC[C@H](C[C@@H](Cc1ccc(-c2cccc(Cl)c2)cc1)NC(=O)c1c[nH]nn1)C(=O)O [Example 9-1, (2S,4S)-5-(3′-Chlorobiphenyl-4-yl)-2-ethoxymethyl-4-[(1H-[1,2,3]triazole-4-carbonyl)amino]pentanoic acid]

Reference: US9593110B2, “Neprilysin inhibitors” (Theravence Biopharma R&D IP, LLC, priority 2014, dated 2017)
